Experimental data as given in ChEMBL document CHEMBL1201862, “PubChem BioAssay data set” (2004).
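Each compound was tested at five concentrations against cells in 96-well plates for 48 hours. GI50: concentration for 50% inhibition of growth.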 Active and inactive are the calls of the source. Rule as the data show it: active = GI50 up to about 1.1 µM and inactive = higher.

What was measured:
Experiment in all cases: inhibition of tumour cell growth, NCI panel, 48 h
[1] = tested on: A498
[2] = tested on: UACC-257
[3] = tested on: HOP-62
[4] = tested on: U-251
[5] = tested on: DMS-114
[6] = tested on: A549
[7] = tested on: IGROV-1
[8] = tested on: MOLT-4
[9] = tested on: DMS-273
[10] = tested on: Malme-3M
[11] = tested on: HT-29
[12] = tested on: OVCAR-3
[13] = tested on: KM12
[14] = tested on: HOP-92
[15] = tested on: HOP-18
[16] = tested on: HCT-116
[17] = tested on: M14
[18] = tested on: EKVX
[19] = tested on: RXF 631
[20] = tested on: M19-MEL
[21] = tested on: NCI-H460
[22] = tested on: SR
[23] = tested on: LOX IMVI
[24] = tested on: SK-MEL-5
[25] = tested on: SF-539
[26] = tested on: SK-MEL-2
[27] = tested on: UO-31
[28] = tested on: RXF 393
[29] = tested on: SF-268
[30] = tested on: NCI-H226
[31] = tested on: TK-10
[32] = tested on: NCI-H23
[33] = tested on: CCRF-CEM
[34] = tested on: SK-OV-3
[35] = tested on: DLD-1
[36] = tested on: OVCAR-5
[37] = tested on: SN12C
[38] = tested on: SNB-78
[39] = tested on: SF-295
[40] = tested on: NCI-H522
[41] = tested on: HCC 2998
[42] = tested on: XF498
[43] = tested on: OVCAR-8
[44] = tested on: COLO 205
[45] = tested on: K562
[46] = tested on: OVCAR-4
[47] = tested on: ACHN
[48] = tested on: UACC-62
[49] = tested on: KM-20L2
[50] = tested on: HL-60
[51] = tested on: 786-0
[52] = tested on: SNB-75
[53] = tested on: RPMI-8226
[54] = tested on: HCT-15

SMILES: O=[N+]([O-])c1ccc2nc(/C(=N/Nc3ccccc3)C(O)c3ccc(Cl)cc3Cl)c(O)nc2c1 (centres undefined)
- GI50 [1]: > 100 µM (inactive)
- GI50 [2]: > 100 µM (inactive)
- GI50 [3]: > 100 µM (inactive)
- GI50 [4]: > 100 µM (inactive)
- GI50 [5]: 8.65 µM (inactive)
- GI50 [6]: > 100 µM (inactive)
- GI50 [7]: > 100 µM (inactive)
- GI50 [8]: 84.5 µM (inactive)
- GI50 [9]: 39 µM (inactive)
- GI50 [10]: > 100 µM (inactive)
- GI50 [11]: > 100 µM (inactive)
- GI50 [12]: > 100 µM (inactive)
- GI50 [13]: 49.3 µM (inactive)
- GI50 [14]: > 100 µM (inactive)
- GI50 [15]: > 100 µM (inactive)
- GI50 [16]: > 100 µM (inactive)
- GI50 [17]: > 100 µM (inactive)
- GI50 [18]: > 100 µM (inactive)
- GI50 [19]: 50.4 µM (inactive)
- GI50 [20]: > 100 µM (inactive)
- GI50 [21]: > 100 µM (inactive)
- GI50 [22]: 29.6 µM (inactive)
- GI50 [23]: > 100 µM (inactive)
- GI50 [24]: 21.8 µM (inactive)
- GI50 [25]: > 100 µM (inactive)
- GI50 [26]: > 100 µM (inactive)
- GI50 [27]: 78.9 µM (inactive)
- GI50 [28]: > 100 µM (inactive)
- GI50 [29]: > 100 µM (inactive)
- GI50 [30]: > 100 µM (inactive)
- GI50 [31]: > 100 µM (inactive)
- GI50 [32]: > 100 µM (inactive)
- GI50 [33]: 22.3 µM (inactive)
- GI50 [34]: > 100 µM (inactive)
- GI50 [35]: > 100 µM (inactive)
- GI50 [36]: > 100 µM (inactive)
- GI50 [37]: > 100 µM (inactive)
- GI50 [38]: > 100 µM (inactive)
- GI50 [39]: > 100 µM (inactive)
- GI50 [40]: 15.9 µM (inactive)
- GI50 [41]: > 100 µM (inactive)
- GI50 [42]: > 100 µM (inactive)
- GI50 [43]: > 100 µM (inactive)
- GI50 [44]: 38.9 µM (inactive)
- GI50 [45]: 30 µM (inactive)
- GI50 [46]: > 100 µM (inactive)
- GI50 [47]: > 100 µM (inactive)
- GI50 [48]: 48.5 µM (inactive)
- GI50 [49]: > 100 µM (inactive)
- GI50 [50]: 21 µM (inactive)
- GI50 [51]: > 100 µM (inactive)
- GI50 [52]: > 100 µM (inactive)
- GI50 [53]: 52.4 µM (inactive)
- GI50 [54]: > 100 µM
